The numbers were not newly measured in US20030114418A1, “Method for the treatment and prevention of pain and inflammation with glucosamine and a cyclooxygenase-2 selective inhibitor and compositions therefor” (Pharmacia Corporation, priority 2001, published 2003), which cites them from elsewhere.

The test system of series [1] is human chondrocytes.
Series [2] has as its system knee osteoarthritis. The following applies: patients with knee osteoarthritis, 1500 mg/day, 3 years.
Series [3] has as its system Cox-2.

Consider `CC(=O)N[C@H]1C(O)O[C@H](CO)[C@@H](O)[C@@H]1O` (stereo partly shown) [N-acetylglucosamine], for which the “effect on il-1beta-mediated activation of human chondrocytes” value in series [1] was “prevent il-1beta-mediated activation of human chondrocytes”.

As for `N[C@H]1C(O)O[C@H](CO)[C@@H](O)[C@@H]1O.O=S(=O)(O)O` (stereo partly shown) [glucosamine sulfate], the joint-space loss result in series [2] is “no significant joint-space loss”. Consider `CC1(C)CC[C@]2(C(=O)O)CC[C@]3(C)C(=CC[C@@H]4[C@@]5(C)CC[C@H](O)C(C)(C)[C@@H]5CC[C@]43C)[C@@H]2C1` [oleanic acid], for which the “selectivity for the inhibition of Cox-2 versus Cox-1” value in series [3] is on record as “not substantially more selective for the inhibition of Cox-2 than for Cox-1”. Take `C[C@H]1[C@H](C)CC[C@]2(C(=O)O)CC[C@]3(C)C(=CC[C@@H]4[C@@]5(C)CC[C@H](O)C(C)(C)[C@@H]5CC[C@]43C)[C@H]12` [ursolic acid]: the “selectivity for the inhibition of Cox-2 versus Cox-1” value in series [3] was “not substantially more selective for the inhibition of Cox-2 than for Cox-1”.
